Measured values as given in patent US10543166B2, “Implantable drug delivery devices and methods of making the same” (TARIS Biomedical LLC, priority 2009, dated 2020).

Key:
[1] = In vitro drug release through both the wall and apertures of silicone tube devices; type: physicochemical; settings: in vitro in water at about 37° C
Description: Another study was performed to investigate the feasibility of delivering drug from a device through both a wall of a drug reservoir and from an aperture in the wall of the drug reservoir. Devices were formed form silicone tubes having a length of about 3 cm. The devices were loaded with solid drug tablets of lidocaine base, for a total payload of about 60 mg. […] The devices were tested in vitro in water at about 37° C.

[2] = In vitro drug release by diffusion through the wall of silicone tube devices; type: physicochemical; settings: silicone tube ID about 0.060 in, OD 0.076 in, length about 3 cm; solid tablets, payload about 60 mg; no aperture; in vitro in water at about 37° C
Description: A study was performed to determine the feasibility of delivering drug through the wall of a drug reservoir via diffusion. Devices were formed form silicone tubes having an inner diameter of about 0.060 inches, an outer diameter of 0.076 inches, and a length of about 3 cm. The devices were loaded with solid drug tablets of lidocaine, for a total payload of about 60 mg. Some of the devices included an aperture formed through the tube wall, the aperture having a diameter of 150 μm. These devices were loaded with solid tablets of either lidocaine hydrochloride monohydrate or a combination of lidocaine hydrochloride monohydrate and lidocaine base. […] The devices were tested in vitro in water at about 37° C.

SMILES: CCN(CC)CC(=O)Nc1c(C)cccc1C [lidocaine base]
- effect of apertures on release rate ([1]; devices with 0, 1 (150 μm), 2, 30 or 60 (360 μm) apertures): release rate can be increased by adding apertures to the device
- release from a silicone tube without any apertures ([1]; silicone tubes about 3 cm, solid tablets, payload about 60 mg): can be released from a silicone tube without any apertures
- delivery of drug via diffusion through a silicone wall without an aperture [2]: feasible to deliver drug via diffusion through a silicone wall without an aperture
